PubChem BioAssay (NCI)
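Briefly, cells in 96-well plates were exposed to five compound concentrations for 48 h, and endpoints were estimated by linear interpolation. GI50 marks 50% less growth. Definition used: TGI = concentration required for complete inhibition of growth.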

Tests used:
Test in all cases: inhibition of tumour cell growth, NCI panel, 48 h
[1] = tested on: SK-MEL-5 melanoma
[2] = tested on: MDA-MB-231 breast
[3] = tested on: OVCAR-4 ovarian
[4] = tested on: SK-OV-3 ovarian
[5] = tested on: NCI-H522 lung
[6] = tested on: SF-295 CNS
[7] = tested on: IGROV1 ovarian
[8] = tested on: SR leukemia
[9] = tested on: NCI-H23 lung
[10] = tested on: HOP-92 NSCLC

Compound	TGI [1] [µM]	TGI [2] [µM]	TGI [3] [µM]	TGI [4] [µM]	TGI [5] [µM]	TGI [6] [µM]	TGI [7] [µM]	TGI [8] [µM]	TGI [9] [µM]	TGI [10] [µM]	GI50 [1] [µM]	GI50 [2] [µM]	GI50 [3] [µM]	GI50 [4] [µM]	GI50 [5] [µM]	GI50 [6] [µM]	GI50 [7] [µM]	GI50 [8] [µM]	GI50 [9] [µM]	GI50 [10] [µM]
C=C[C@@]1(C)CC(=O)[C@]2(O)[C@@]3(C)[C@@H](O)CCC(C)(C)[C@@H]3[C@H](O)[C@@H](OC(C)=O)[C@@]2(C)O1	> 100	> 100	> 100	> 100	> 100	> 100	> 100	> 100	> 100	> 100										
COc1cc(/C=C2\C(=O)Nc3ccc(Br)cc32)cc(OC)c1OC	> 100	> 52.9	> 100	> 56.1	> 50.9	68.9	17	3.08	66	24.8	6.33	7.68	> 29	24	3.29	12	2.29	0.304	8.07	2.68
COc1ccc(-c2nn(-c3cccc(Cl)c3)cc2/C=C2\C(=N)N(c3ccccc3)N=C2N)cc1	7.73	28.7	> 89.1	> 100	23	2.83	> 84.8	15.1	43.5	> 81.4	2.16	1.25	2.13	34.7	0.916	0.271	2.1	1.04	4.62	22.4
Cc1ccc(NCCNCC(O)CO)c2c(=O)c3ccccc3sc12 (stereo not given)	2.93	3	4.68	3.86	4.09	3.09	3.43	3.97	3.54	7.81	1.57	1.37	1.86	1.65	1.91	1.52	1.61	1.55	1.73	1.98
